One series relates to EMT-6 cells. To be noted: mouse, in vivo; cited from earlier work.
Series [1] relates to MDA-MB-231 xenografts. In words: Lung metastases-preventing study, MDA-MB-231 L/G xenografts. The series is classed as in vivo, mice. The protocol:
For the lung metastases-preventing study, MDA-MB-231 L/G cells were implanted as described above. The mice were randomized and treatments started 48 hrs after cell injection (n=5/group): 1) Vehicle (saline, i.p.), 2) L-NAME (80 mg/kg, i.p., daily for 35 days). Previous injection of luciferin, lungs were removed and washed in cold DMEM+10% FBS+1% antibiotics/antimycotic. Then, lungs were incubated in cold DMEM media containing 50 μM luciferin for 10 min. This protocol avoids the time lapse between lung extraction and exposure to luciferin. Fluorescent cancer cells were detected with an IVIS-200 in vivo imaging system (Perkin Elmer, Inc., Santa Clara, Calif., USA).
(§1) Self-renewal and tumor-initiating capacity was determined by MSFE and limiting-dilution assays, respectively, in single cells isolated from tumor tissue. Briefly, breast tumor tissue was minced, digested in DMEM:F12 medium with 100 U/mL of collagenase type 3 (Worthington, Lakewood, N.J., USA) and 0.8 U/mL of dispase (Gibco, Carlsbad, Calif., USA) at 37° C. for 45 min. MSFE was assayed in isolated single cells as stated above. The limiting dilution assay (LDA) was performed injecting either […] isolated cells from tumor tissue in the mammary fat pad of SCID Beige mice (n=12/group). Flow cytometric analysis of CD44^+/CD24^−/low cell population was assayed using published methods.
iNOS inhibition reduces tumor growth, tumor initiating capacity and prevents lung metastases in mouse models of triple negative breast cancer. Based on the in vitro data, the inventor next investigated whether iNOS inhibition was able to prevent tumor initiation and metastasis of breast tumor cells in a mouse model of lung metastases. Daily i.p. injections of 80 mg/kg L-NAME were given to MDA-MB-231 xenograft-bearing mice for 35 days. […] Additionally, tumor-initiating capacity of CSC was assessed with a limiting dilution assay (LDA) by injecting single cells isolated from tumor tissue (5×10^5 or 1×10^5 cells) in the right mammary fat pad. All the animals of vehicle group (n=5) developed tumors whereas treatment with L-NAME yielded 3/5 tumors at 1.5 weeks with 5×10^5 cells.
The inventor then examined whether iNOS inhibition was able to suppress metastasis to lungs in TNBC xenografts model. The luciferase/GFP-based MDA-MB-231 (MDA-MB-231 L/G) xenograft mouse model mimics the metastatic process to the lungs in patients. In this model of lung metastasis, cells metastasize from the primary tumor to lungs in ˜35 days after implantation. MDA-MB-231 L/G cells were injected in the right mammary fat pad of SCID mice and 80 mg/kg L-NAME was given daily for 35 days.

A further series relates to C3L5 and C10. To be noted: cited from earlier work.
The test system of a further series is HCC-70. In words: PD-L1 expression in TNBC cell line. The series is classed as cell-based, human.
Series [2] in a line: LC-MS/MS quantification of methylarginine in plasma and tumor tissue. The series is classed as in vivo, mice.
Protocol: Metabolite profiling by liquid chromatography-tandem mass spectrometry (LC-MS/MS). MDA-MB-231 and SUM159 xenograft tissue from animal studies (L-NMMA given daily) as well as plasma samples were prepared as previously described. L-NMMA (200 mg/kg) was orally administered by gavage to female SCID Beige mice (n=5). Blood was drawn before (baseline, 0 hrs) and after L-NMMA administration (0.5, 2, 12, 24 hrs). LC-MS/MS platform used for metabolite profiling was previously described. Ratiometric quantification of methylarginine (L-NMMA) and citrulline was determined as ion abundance levels in plasma and tumor tissue.
In series [3] the test system is MDA-MB-231. Nature of the series: Cell proliferation assay (WST-1), iNOS inhibitors. The series is classed as cell-based, human. To be noted: highest concentration (4 mM), 96 hrs. The protocol:
(§2) Cell Culture. Mesenchymal-like triple negative breast cancer cell lines, MDA-MB-231 and SUM159, were purchased from American Type Culture Collection and Asterand, respectively. […] Mammosphere forming efficiency (MSFE), cell proliferation and migration assays are detailed below. Cell culture and mammosphere forming efficiency assay. […] For mammosphere-forming efficiency (MSFE) assay, 2,000 (SUM159) and 5,000 (MDA-MB-231) cells/well were cultured in 0.5% methylcellulose (MethoCult H4100, StemCell Technologies) and MammoCult basal medium supplemented with 10% MammoCult proliferation supplement, 4 μg/mL heparin and 0.48 μg/mL hydrocortisone (StemCell Technologies, Vancouver, BC, CANADA). […] Primary MSFE was evaluated dividing mammosphere number by cell number. After trypsinization of primary MS, single cells were grown in 0.5% methylcellulose and mammosphere medium (as described above) in absence of treatment. Secondary MS were scanned, counted and secondary MSFE were assessed. For the mouse model of lung metastasis, MDA-MB-231 cells were transfected with a luciferase/GFP-based dual-reporter plasmid and stable clones (MDA-MB-231 L/G) selected with 1 mg/mL blasticidin (InvivoGen, San Diego, Calif., USA). […] Proliferation rate was determined by adding premixed WST-1 reagent (Clontech). After incubation at 37° C. for 3 hrs, absorbance was read at 450 nm (reference wavelength 690 nm).
On the technique in general: Tetrazolium assays rely on reduction of a dye to a coloured formazan, in cell work by metabolically active cells.

Series [4] deals with SUM159. Nature of the series: Cell proliferation assay (WST-1), iNOS inhibitors. The series is classed as cell-based, human. The following applies: highest concentration (4 mM), 96 hrs. Here is the method:
as §2

The target in the next series is iNOS (Homo sapiens, UniProt P35228). Nature of the series: LC-MS/MS quantification of citrulline in xenograft tissue. The following applies: SUM159 xenograft tissue, 24 hrs after completion of treatment. The series is classed as in vivo, mice.
For series [5] the following is noted: cited from earlier work.
The subject of series [6] is MDA-MB-231 xenografts. In words: MDA-MB-231 xenografts treated with L-NMMA, docetaxel, combination. The series is classed as in vivo, mice. Here is the method: (§3) Animal Studies. Female SCID Beige mice (4-5 weeks old) (Harlan Laboratories, Houston, Tex., USA) were housed under standard laboratory conditions (22° C.; 12 hrs/12 hrs light/dark cycle and free access to food and water). Either MDA-MB-231 or SUM159 cells (3×10^6) were injected in the right mammary fat pad. Once the tumors reached 150-200 mm^3, the mice were randomized into different groups as follows (n=10/group): 1) Vehicle (saline, i.p.), 2) L-NMMA (either 80 mg/kg or 200 mg/kg, i.p., daily), 3) Docetaxel (20 mg/kg), 4) Combo (L-NMMA and docetaxel).
as §1
The role of L-NMMA was then investigated, either alone or in combination with docetaxel in a different TNBC mouse model. Docetaxel (20 mg/kg at days 0 and 21) and 200 mg/kg L-NMMA (daily) were given to MDA-MB-231 xenograft-bearing mice for 31 days.

The conditions of series [7]: cited from earlier work. This is another data set of the same source.
In series [8] the test system is MDA-MB-231. Nature of the series: Cell migration, wound healing assay. The series is classed as cell-based, human. To be noted: 96 hrs treatment, wound healing 12 hrs. The protocol:
(§4) FIG. 18A and FIG. 18B show the migration of MDA-MB-231 and SUM159 cells was assessed by “wound healing” assay. Briefly, 3×10^5 cells were plated in a 6-well plate until confluence in growth medium. […] A “wound” was then created in the cell monolayer. Images were taken at 0 and 12 hrs. Wound-healing capacity was determined with the software Image J. Data were replicated in three independent experiments. Results were normalized to vehicle;
(§5) Cell migration capacity. Cell migration was determined with a “wound healing assay.” Briefly, 3×10^5 cells/well were grown in 6-well plates until confluence. […] To avoid an impact on cell proliferation, low serum medium was changed by regular growth medium in presence of inhibitors for 24 hrs (96 hrs total). A “wound” was then created in the cell monolayer with a 100-4, pipette tip. Images were taken at 0 hrs, and cells were allowed to heal the wound for 12 hrs. Wound-healing capacity was determined with the software Image J. Data were replicated in three independent experiments.

Series [9] deals with SUM159. In words: Cell migration, wound healing assay. The series is classed as cell-based, human. The following applies: 96 hrs treatment, wound healing 12 hrs. Here is the method: as §4, §5
Another series relates to MDA-MB-468. Nature of the series: PD-L1 expression in TNBC cell line. The series is classed as cell-based, human.
The subject of a further series is SUM159 xenografts. In words: SUM159 xenografts treated with L-NMMA, docetaxel, combination. The series is classed as in vivo, mice. Here is the method: as §3, §1
To answer this question, daily injections of 80 mg/kg L-NMMA were first given to SUM159 xenograft-bearing mice alone or in combination with docetaxel (20 mg/kg). […] The inventor next analyzed the impact on CSC self-renewal by the MSFE assay.

The test system of a further series is SUM159 cells. In words: Nitric oxide production (nitrate/nitrite fluorometric assay). The series is classed as cell-based, human. The following applies: nitrate+nitrite in supernatant, up to 24 hrs.

Description for SUM159 cells: Nitric oxide production in SUM159 cells. […] Aliquots of cell culture supernatant were taken at 0, 0.5, 2, 6 and 24 hrs for nitrate+nitrite (total nitric oxide) production with the nitrate/nitrite fluorometric assay kit (Cayman Chemical) following manufacturer's instructions.

As to `COC(=O)[C@@H](N)CCCNC(=N)N[N+](=O)[O-]` [L-NAME, N^5-[imino(nitroamino)methyl]-L-ornithine methyl ester], the “tumor growth and lung metastasis” value with EMT-6 cells was “decrease tumor growth and lung metastasis”. Also, the “ex vivo imaging of lungs in presence of luciferin (lung metastasis)” value in the series on MDA-MB-231 xenografts [1] (80 mg/kg daily for 35 days) was “higher fluorescence in vehicle group compared to L-NAME group”. In addition, the “MSFE of primary MS of cells isolated from tumor tissue” value in the series with MDA-MB-231 xenografts [1] (80 mg/kg i.p. daily for 35 days) was “significantly reduced”. The tumor growth entry in the series with MDA-MB-231 xenografts [1] (80 mg/kg i.p. daily for 35 days, p=0.001) is recorded as “significantly reduced tumor growth”. In addition, the “secondary MSFE of cells isolated from tumor tissue” value with MDA-MB-231 xenografts [1] (80 mg/kg i.p. daily, compared to vehicle group) is reported as “diminished but not significantly”. For the same molecule, the “limiting dilution assay, tumors developed” value is recorded as 3/5 in the series on MDA-MB-231 xenografts [1] (1.5 weeks with 5×10^5 cells, vehicle all animals (n=5)) and 0/5 in the series with MDA-MB-231 xenografts [1] (2.5 weeks with 1×10^5 cells). Also, the “invasive and migrating potential” value in the series on C3L5 and C10 was “inhibited the invasive and migrating potential”.

With `[H]/N=C(/NC)NCCC[C@H](N)C(=O)O` [L-NMMA, N^G-monomethyl-L-arginine], the PD-L1 expression entry in the series with HCC-70 and in the series with MDA-MB-468 was “increase the PD-L1 expression” each time. Also, the L-NMMA plasma levels entry in series [2] (200 mg/kg oral gavage, 0.5, 2, 12, 24 hrs) is “cleared rapidly”. The “L-NMMA in tumor tissue” value in [2] (24 hrs after completion of treatment) is on record as “accumulates in the tumor tissue”. Also, the proliferation entry in the series on MDA-MB-231 [3] and in the series with SUM159 [4] was “anti-proliferative activity” each time. In addition, the “duration of elevation in BP” value (after the last injection of L-NMMA) was “transient and disappeared 24 hrs after the last injection”. The molecule further displayed a mean systolic pressure (oral L-NMMA 200 mg/kg, basal levels 120 mmHg) of 147 mm Hg. Also, on iNOS, the “conversion of L-arginine to L-citrulline and NO by iNOS” value was “inhibits the conversion of L-arginine to L-citrulline and NO by iNOS”. For the same molecule, the “time to normalization of blood pressure upon ceasing the infusion” value in series [5] (12 mg/kg) is given as “less than 5 min”. The “transient increase in systolic blood pressure” value in series [5] (12 mg/kg) was “up to 25 mm Hg”. In series [5] (3, 6, and 12 mg/kg prior to infusion of IL-2, n=3 per cohort), the “safety of bolus injections” value is on record as “safe”. Moreover, in series [5] (3 and 6 mg/kg), the blood pressure result is “remained unchanged”. For the same molecule, the “clinically apparent side effects” value in series [5] (3 and 6 mg/kg) is given as “did not induce clinically apparent side effects”. Moreover, the “hematologic, liver, or renal abnormalities” value in series [5] (human, in vivo) was “not associated with any hematologic, liver, or renal abnormalities”. Besides, the “limiting dilution assay, tumors” value in the series with MDA-MB-231 xenografts [6] (5 weeks with 5×10^4 cells, vehicle 12/12) is reported as 1/12; in the series with MDA-MB-231 xenografts [6] (after six weeks, vehicle 6/12), 3/12; with SUM159 xenografts (7 weeks with 5×10^4 cells, vehicle 12/12), 4/12; in the series on SUM159 xenografts (week nine with 2×10^4 cells, vehicle 7/12), 0/12. The tumor growth entry with MDA-MB-231 xenografts [6] (L-NMMA 200 mg/kg daily, docetaxel 20 mg/kg days 0 and 21, 31 days) is recorded as “reduced tumor growth”; in the series on SUM159 xenografts (L-NMMA 80 mg/kg daily, alone or with docetaxel 20 mg/kg, after 10 days), “no differential effect”; in the series with SUM159 xenografts (L-NMMA daily dose increased to 200 mg/kg, alone or with docetaxel) it was “efficiently blocked”. In the series on MDA-MB-231 xenografts [6] (compared to vehicle and chemotherapy alone groups), the “primary MS of cells isolated from tumor tissue” value is reported as “less”. Moreover, the “proliferation rate by immunohistochemistry (Ki67)” value with MDA-MB-231 xenografts [6] (mouse, in vivo) is given as “lower proliferation rate”. In addition, the “secondary MS of cells isolated from tumor tissue” value in the series on MDA-MB-231 xenografts [6] (mouse, in vivo) is on record as “reduce secondary MS”. Further, the tolerability result in series [7] (in vivo) is “well tolerated with few AEs other than transient (minutes) reversible hypertension”. Also, the mortality result in [7] (myocardial infarction complicated by refractory cardiogenic shock) is recorded as “no effect on mortality”. Moreover, the migration entry was “not consistent and less effective” in the series on MDA-MB-231 [8] (micromolar range); “reduction in migration capacity” in the series with MDA-MB-231 [8] (millimolar range); “not consistent and less effective” with SUM159 [9] (micromolar range); “reduction in migration capacity” with SUM159 [9] (millimolar range). The “tumor cell proliferation by immunohistochemistry (Ki67)” value with SUM159 xenografts (mouse, in vivo) is “Higher proliferating rate in vehicle and chemotherapy groups compared to L-NMMA and combination groups”. Besides, in the series on SUM159 cells, the “total NO production” value was “decrease in total NO production”.

These data come from patent US11357850B2, “Methods for treating breast cancer using INOS-inhibitory compositions” (The Methodist Hospital, priority 2014, dated 2022).
